The source of these data is patent publication US7723068B2, “Gene cluster involved in safracin biosynthesis and its uses for genetic engineering” (PharmaMar, S.A., priority 2002, dated 2010).

The IC50 is the concentration needed to halve the response being measured. Low readings indicate greater potency in that assay, high ones weaker potency in that assay. By GI50 is commonly meant the concentration that inhibits growth by half. By zone of inhibition is commonly meant the extent of the growth-free halo in a diffusion test. High values mean a stronger effect on the plate, low ones a weaker effect on the plate.

The subject of assay [1] is PROTEIN synthesis. In words: Secondary Screening, Macromolecules Synthesis PROTEIN. In kind it is cell-based. Conditions: Secondary Evaluation.
The test system of assay [2] is K-562. Briefly: cells. As to conditions: Homo sapiens; for GI50: K562, read-out: GI50 K-562; for CC50: K562, read-out: LC50 K-562.
Assay [3] concerns K-562. As to conditions: Leukemia.
Assay [4] deals with LOVO. Briefly: cells. As to conditions: Homo sapiens; for GI50: read-out: GI50 LOVO; for CC50: read-out: LC50 LOVO.
In assay [5] the test system is HELA. As to conditions: Cervix.
Assay [6] deals with IGROV. In words: cells. Conditions: for GI50: read-out: GI50 IGROV; for CC50: read-out: LC50 IGROV.
For assay [7], the system named is IGROV. As to conditions: Ovary.
In assay [8] the test system is LOVO. Conditions: Colon.
The test system of assay [9] is PANC1. Briefly: cells. As to conditions: Homo sapiens; for GI50: PANC-1, read-out: GI50 PANC1; for CC50: PANC-1, read-out: LC50 PANC1.
Assay [10] in a line: Antibacterial and antitumoral activities, general statements. Conditions: compared with safracin A / safracin B.
For assay [11], the system named is LOVO-DOX. As to conditions: Colon.
In assay [12] the test system is SK-BR3. In words: cells. As to conditions: Homo sapiens; for GI50: SK-BR-3, read-out: GI50 SK-BR3; for CC50: SK-BR-3, read-out: LC50 SK-BR3.
Assay [13] relates to HELA-APL. As to conditions: Cervix.
Assay [14] has as its system HELA-APL. In words: cells. As to conditions: for GI50: read-out: GI50 HELA-APL; for CC50: read-out: LC50 HELA-APL.
For assay [15], the system named is LN-caP. As to conditions: Prostate.
Assay [16] has as its system SK-BR3. As to conditions: Breast.
Assay [17] relates to SK-MEL-28. Briefly: cells. Conditions: Homo sapiens; for GI50: SK-MEL-28, read-out: GI50 SK-MEL-28; for CC50: SK-MEL-28, read-out: LC50 SK-MEL-28.
The subject of assay [18] is SK-MEL-28. As to conditions: Melanoma.
Assay [19] relates to IGROV-ET. Briefly: cells. As to conditions: for GI50: read-out: GI50 IGROV-ET; for CC50: read-out: LC50 IGROV-ET.
In assay [20] the test system is LN-caP. In words: cells. Conditions: Homo sapiens, LNCaP; for GI50: read-out: GI50 LN-caP; for CC50: read-out: LC50 LN-caP.
Assay [21] deals with Bacillus subtilis. In words: Antimicrobial activity on solid medium, disk. Conditions: Bacillus subtilis, 10 μg/disk (6 mm diameter). It counts as cell-based. The method, then: Antimicrobial activity: On solid medium Bacillus subtilis. 10 μg/disk (6 mm diameter): 10 mm inhibition zone Spectroscopic Data: […]
The subject of assay [22] is PANC1. As to conditions: Pancreas.
In assay [23] the test system is A549. As to conditions: NSCL.
Assay [24] concerns HELA. In words: cells. As to conditions: Homo sapiens; for GI50: read-out: GI50 HELA; for CC50: read-out: LC50 HELA.
Assay [25] concerns A549. In words: cells. Conditions: Homo sapiens; for GI50: A549, read-out: GI50 A549; for CC50: A549, read-out: LC50 A549.
The subject of assay [26] is DU-145. Briefly: cells. As to conditions: Homo sapiens; for GI50: DU-145, read-out: GI50 DU-145; for CC50: DU-145, read-out: LC50 DU-145.
Assay [27] relates to HT29. Briefly: cells. Conditions: Homo sapiens; for GI50: HT-29, read-out: GI50 HT29; for CC50: HT-29, read-out: LC50 HT29.
In assay [28] the test system is DU-145. Conditions: Prostate.
Assay [29] concerns IGROV-ET. Conditions: Ovary.
For assay [30], the system named is LOVO-DOX. In words: cells. As to conditions: for GI50: read-out: GI50 LOVO-DOX; for CC50: read-out: LC50 LOVO-DOX.
For assay [31], the system named is DNA synthesis. Briefly: Secondary Screening, Macromolecules Synthesis DNA. In kind it is cell-based. Conditions: Secondary Evaluation.
Assay [32] has as its system HT29. Conditions: Colon.
The conditions of assay [33]: different tumor cell lines; background; cited from earlier work.
The nature of assay [34]: Biological Activities of natural precursors (test not specified).

Some results are limits rather than exact numbers.

For the molecule `CCOC1=C(C)C(=O)C2=C(C1=O)C(CNC(=O)C(C)N)N1CC3Cc4cc(C)c(OCC)c(O)c4C(C1C2)N3C` (stereo not shown) [Safracin A (OEt)], the figures for the IC50 in assay [1] and in assay [31] were 6.33 µM and 1.81 µM, respectively. For the same molecule, the concentration for 50% growth inhibition (GI50) came to 0.311 µM in assay [2]; 2.03 µM in assay [4]; 0.492 µM in assay [6]; 3.06 µM in [9]; 0.555 µM in assay [12]; 0.764 µM in assay [14]. Also, the GI50 in assay [17] came to 0.796 µM; in [19], 2.01 µM; in [20], 0.378 µM; in assay [24], 1.02 µM; in [25] it was 4 µM; in assay [26], 2.64 µM. The concentration for 50% growth inhibition (GI50) was 1.97 µM in assay [27] and 5.72 µM in assay [30]. Also, the CC50 came out at 1.51 µM in assay [2]; 9.61 µM in assay [4]; 1.76 µM in [6]; 11.1 µM in [9]; 5.57 µM in assay [12]; 6.69 µM in [14]. The CC50 in assay [17] was 5.77 µM; in [19] it was 13 µM; in [20], 1.45 µM; in assay [24], 7.85 µM; in assay [25], 12.8 µM; in assay [26] it was 11 µM. The CC50 is 9.88 µM in assay [27] and 16.9 µM in [30]. Moreover, in [3], the “TGI K-562” value was found to be 0.686 µM. Besides, in assay [5], the “TGI HELA” value was determined as 2.91 µM. Also, the “TGI IGROV” value in [7] was determined as 0.928 µM. The “TGI LOVO” value in assay [8] was found to be 4.41 µM. Moreover, the “antibacterial and antitumoral activities (in words)” value in assay [10] was “as potent as the activities of safracin A and safracin B, respectively”. In addition, the “TGI LOVO-DOX” value in [11] is 9.84 µM. Further, the “TGI HELA-APL” value in [13] stood at 2.32 µM. In addition, in assay [15], the “TGI LN-caP” value stood at 0.742 µM. Besides, the “TGI SK-BR3” value in assay [16] came to 1.16 µM. Further, in [18], the “TGI SK-MEL-28” value was 1.9 µM. In [21], the zone of inhibition at 10 µg/disc was determined as 10 mm. The “TGI PANC1” value in assay [22] was found to be 5.83 µM. Besides, in assay [23], the “TGI A549” value was 7.17 µM. The “TGI DU-145” value in [28] was determined as 5.39 µM. In assay [29], the “TGI IGROV-ET” value stood at 5.1 µM. Further, in assay [32], the “TGI HT29” value amounted to 4.41 µM.
Regarding `COC1=C(C)C(=O)C2=C(C1=O)[C@H](CNC(=O)[C@H](C)N)N1C[C@@H]3Cc4cc(C)c(OC)c(O)c4[C@H]([C@@H]1C2)N3C` [Safracin A, reference compound], the “antibacterial and antitumoral activities (in words)” value in assay [10] was “less antibiotic and antitumoral activity”. Further, the “antitumor and antibacterial activity (in words)” value in assay [33] is given as “possess antitumor activity in addition to antibacterial activity”.
As for `COC1=C(C)C(=O)C2=C(C1=O)[C@H](CNC(=O)[C@H](C)N)N1[C@@H](O)[C@H]3Cc4cc(C)c(OC)c(O)c4[C@@H]([C@@H]1C2)N3C` [Safracin B], in assay [33], the “antitumor and antibacterial activity (in words)” value is listed as “possess antitumor activity in addition to antibacterial activity”.
As for `COC1=C(C)C(=O)C2=C(C1=O)C(CNC(=O)C(C)N)N1CC3Cc4cc(C)c(OC)c(O)c4C(N3)C1C2` (stereo not shown) [Safracin E], the half-maximal inhibitory concentration (IC50) in assay [1] is 15.7 µM; in [31] it was greater than 19.6 µM. Further, the GI50 in assay [2] amounted to 4.25 µM; in assay [4] it was 7.15 µM; in assay [6], 4.5 µM; in [9], 6.05 µM; in assay [12], 5.05 µM; in assay [14], 4.03 µM. Also, the GI50 is 3.94 µM in assay [17]; 4.54 µM in [19]; 3.86 µM in assay [20]; 4.15 µM in assay [24]; 19.6 µM in assay [25]; 8.34 µM in assay [26]. Besides, the GI50 in [27] worked out at 7.89 µM; in [30] it was 5.07 µM. Besides, the CC50 in [2] is 15.9 µM; in assay [4], greater than 19.6 µM; in [6], 17.4 µM; in [9], greater than 19.6 µM; in assay [12], 17 µM; in assay [14], 13 µM. For the same molecule, the CC50 is 12.2 µM in [17]; 14.9 µM in assay [19]; 15.4 µM in assay [20]; 12.8 µM in assay [24]; greater than 19.6 µM in assay [25]; greater than 19.6 µM in assay [26]. The CC50 is greater than 19.6 µM in assay [27] and 17.5 µM in assay [30]. Further, in assay [3], the “TGI K-562” value turned out to be 8.21 µM. In assay [5], the “TGI HELA” value was 7.29 µM. Also, the “TGI IGROV” value in assay [7] was determined as 8.85 µM. In [8], the “TGI LOVO” value is greater than 19.6 µM. The “antibacterial and antitumoral activities (in words)” value in [10] was “the same antibacterial and antitumoral activities as safracin B and safracin A, respectively”. Further, the “TGI LOVO-DOX” value in [11] was found to be 9.44 µM. Moreover, the “TGI HELA-APL” value in [13] amounted to 7.25 µM. In assay [15], the “TGI LN-caP” value was 7.7 µM. In addition, in [16], the “TGI SK-BR3” value came to 9.24 µM. Further, in [18], the “TGI SK-MEL-28” value is 6.93 µM. The zone of inhibition at 10 µg/disc in assay [21] came to 9.5 mm. In addition, the “TGI PANC1” value in [22] is 14.7 µM. The “TGI A549” value in [23] was greater than 19.6 µM. For the same molecule, in assay [28], the “TGI DU-145” value stood at 19.6 µM. For the same molecule, the “TGI IGROV-ET” value in assay [29] came to 8.25 µM. The “TGI HT29” value in [32] amounted to 19.6 µM.
`COc1c(C)cc(C[C@H](N)C(=O)O)cc1O` [Safracin P-2, 3-hydroxy-5-methyl-O-methyltyrosine]: in assay [34], the “Biological Activities” value was “NO ACTIVE”.
Still for that read-out and setting: the result for `COc1ccc(C[C@H](N)C(=O)O)cc1C` [Safracin P-14, 3-methyl-O-methyltyrosine] reads “NO ACTIVE”.
